{
  "source": "patent US20150118229A1",
  "about": "“JAK1 SELECTIVE INHIBITOR AND USES THEREOF” (ABBVIE INC., priority 2013, published 2015)",
  "key": {"BCRP": {"target": "T1, BCRP (Homo sapiens, UniProt Q9UNQ0)", "T1 construct": "expressed in transfected cells; host or cells: MDCKII-BCRP", "T1 sequence (Q9UNQ0 whole entry)": "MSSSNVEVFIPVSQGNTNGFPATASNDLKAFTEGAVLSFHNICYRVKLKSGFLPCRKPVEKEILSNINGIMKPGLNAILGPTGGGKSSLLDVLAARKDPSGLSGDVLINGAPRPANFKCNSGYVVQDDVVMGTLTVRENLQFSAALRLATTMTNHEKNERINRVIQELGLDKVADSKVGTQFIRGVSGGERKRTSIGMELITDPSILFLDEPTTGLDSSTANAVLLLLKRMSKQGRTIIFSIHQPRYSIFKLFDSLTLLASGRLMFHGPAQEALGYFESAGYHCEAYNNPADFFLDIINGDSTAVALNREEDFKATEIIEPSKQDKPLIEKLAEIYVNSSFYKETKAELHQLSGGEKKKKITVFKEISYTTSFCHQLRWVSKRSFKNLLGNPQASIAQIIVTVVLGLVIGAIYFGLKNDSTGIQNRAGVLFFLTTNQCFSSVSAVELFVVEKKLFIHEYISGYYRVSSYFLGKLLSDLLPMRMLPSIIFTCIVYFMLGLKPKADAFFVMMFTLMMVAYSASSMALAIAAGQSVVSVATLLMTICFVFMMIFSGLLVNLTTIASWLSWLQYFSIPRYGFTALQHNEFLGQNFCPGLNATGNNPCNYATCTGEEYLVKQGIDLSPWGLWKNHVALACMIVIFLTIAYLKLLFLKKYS", "assay": "BCRP inhibition", "assay_type": "in vitro ADME"}, "EPO (Erythroid CFU)": {"system": "EPO (Erythroid CFU)", "assay": "Erythroid bone marrow colony forming assay (EPO)", "assay_type": "cell-based", "conditions": "read-out: Colony Formation EPO (Erythroid CFU)"}, "[1]": {"assay": "Definitive embryofetal development toxicity study in rats", "assay_type": "in vivo", "conditions": "rat", "text": "One additional group of 25 time-mated females served as the control and received the vehicle, 0.2% hydroxypropyl methylcellulose (HPMC, high viscosity) in deionized water."}, "[2]": {"system": "IL-7-dependent STAT5 phosphorylation", "assay": "Ex vivo IL-7-stimulated pSTAT5 in blood of orally dosed rats", "conditions": "Rattus norvegicus, po; rats dosed bid 14 days, blood 12 hours after final dose; read-out: IC50, inhibition of IL-7-induced pSTAT5 formation ex vivo", "text": "Unlike other common gamma chain receptors, IL-7 receptors are expressed relatively abundantly on peripheral blood T cells, enabling the use of IL-7 as an agonist in ex vivo stimulation assays. Stimulation of whole blood with IL-7 leads to phosphorylation of STAT5, which can be measured by flow cytometry. Because STAT proteins are Jak kinase substrates, inhibition of their phosphorylation can be considered a mechanistic readout for Jak inhibition."}, "P-gp": {"target": "P-gp (Homo sapiens, UniProt P08183)", "sequence (P08183 whole entry)": "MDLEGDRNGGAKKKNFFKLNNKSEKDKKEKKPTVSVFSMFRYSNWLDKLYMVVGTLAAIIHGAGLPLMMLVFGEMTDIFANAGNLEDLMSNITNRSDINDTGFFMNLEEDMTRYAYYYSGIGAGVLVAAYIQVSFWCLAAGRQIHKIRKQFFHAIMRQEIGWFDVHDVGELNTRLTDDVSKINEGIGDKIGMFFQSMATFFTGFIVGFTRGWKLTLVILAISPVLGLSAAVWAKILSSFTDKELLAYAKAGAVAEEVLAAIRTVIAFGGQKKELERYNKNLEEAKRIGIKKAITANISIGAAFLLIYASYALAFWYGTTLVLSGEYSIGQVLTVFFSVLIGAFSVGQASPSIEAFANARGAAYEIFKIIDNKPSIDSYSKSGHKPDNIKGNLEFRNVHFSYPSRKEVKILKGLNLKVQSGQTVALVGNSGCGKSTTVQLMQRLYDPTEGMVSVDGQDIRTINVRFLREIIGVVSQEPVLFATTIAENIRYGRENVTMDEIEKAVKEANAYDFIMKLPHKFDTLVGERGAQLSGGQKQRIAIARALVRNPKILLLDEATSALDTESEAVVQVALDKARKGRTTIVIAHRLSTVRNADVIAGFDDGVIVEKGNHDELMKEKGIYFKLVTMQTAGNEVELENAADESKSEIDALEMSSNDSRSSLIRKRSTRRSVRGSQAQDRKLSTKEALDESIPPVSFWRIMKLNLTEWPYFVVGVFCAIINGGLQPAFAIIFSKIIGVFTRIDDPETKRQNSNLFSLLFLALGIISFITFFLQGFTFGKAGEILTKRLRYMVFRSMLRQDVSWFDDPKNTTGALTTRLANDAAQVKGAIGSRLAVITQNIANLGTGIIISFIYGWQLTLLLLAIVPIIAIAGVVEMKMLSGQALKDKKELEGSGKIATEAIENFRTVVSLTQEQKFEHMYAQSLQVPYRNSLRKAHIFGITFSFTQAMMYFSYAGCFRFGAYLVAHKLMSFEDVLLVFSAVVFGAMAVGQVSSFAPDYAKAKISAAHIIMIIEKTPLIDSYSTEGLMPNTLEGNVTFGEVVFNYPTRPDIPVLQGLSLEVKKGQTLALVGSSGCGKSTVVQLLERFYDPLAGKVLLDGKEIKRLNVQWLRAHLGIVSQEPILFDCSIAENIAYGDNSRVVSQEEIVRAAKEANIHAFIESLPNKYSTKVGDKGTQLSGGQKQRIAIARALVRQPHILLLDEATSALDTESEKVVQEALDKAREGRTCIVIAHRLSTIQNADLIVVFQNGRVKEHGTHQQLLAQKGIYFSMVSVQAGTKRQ", "assay": "P-gp inhibition", "assay_type": "in vitro ADME"}, "CYP2B6": {"system": "CYP2B6", "assay": "CYP induction (mRNA) in human hepatocytes, CYP2B6", "assay_type": "in vitro ADME"}, "[3]": {"conditions": "rat, in vivo"}, "IL-6 signaling": {"system": "IL-6 signaling", "assay": "Whole blood assay IL-6 pSTAT3 CD14+", "assay_type": "cell-based"}, "OCT2": {"target": "OCT2 (Homo sapiens, UniProt O15244)", "sequence (O15244 whole entry)": "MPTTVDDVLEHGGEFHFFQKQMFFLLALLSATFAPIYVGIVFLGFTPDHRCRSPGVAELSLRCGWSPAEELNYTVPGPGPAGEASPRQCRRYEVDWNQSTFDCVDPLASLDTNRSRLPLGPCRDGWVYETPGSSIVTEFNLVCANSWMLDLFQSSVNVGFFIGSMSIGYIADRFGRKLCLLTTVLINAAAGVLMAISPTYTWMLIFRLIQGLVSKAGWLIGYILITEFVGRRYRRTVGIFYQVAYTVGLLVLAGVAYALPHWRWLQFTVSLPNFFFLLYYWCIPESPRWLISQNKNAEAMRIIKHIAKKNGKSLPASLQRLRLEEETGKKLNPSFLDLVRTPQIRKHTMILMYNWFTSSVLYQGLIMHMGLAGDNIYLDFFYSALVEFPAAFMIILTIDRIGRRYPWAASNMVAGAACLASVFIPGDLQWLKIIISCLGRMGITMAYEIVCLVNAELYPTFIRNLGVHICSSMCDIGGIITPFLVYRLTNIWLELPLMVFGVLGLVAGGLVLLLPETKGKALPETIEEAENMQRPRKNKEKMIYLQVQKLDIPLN", "assay": "Transporter inhibition, OCT2", "conditions": "up to 30 μM"}, "OAT3": {"target": "OAT3 (Homo sapiens, UniProt Q8TCC7)", "sequence (Q8TCC7 whole entry)": "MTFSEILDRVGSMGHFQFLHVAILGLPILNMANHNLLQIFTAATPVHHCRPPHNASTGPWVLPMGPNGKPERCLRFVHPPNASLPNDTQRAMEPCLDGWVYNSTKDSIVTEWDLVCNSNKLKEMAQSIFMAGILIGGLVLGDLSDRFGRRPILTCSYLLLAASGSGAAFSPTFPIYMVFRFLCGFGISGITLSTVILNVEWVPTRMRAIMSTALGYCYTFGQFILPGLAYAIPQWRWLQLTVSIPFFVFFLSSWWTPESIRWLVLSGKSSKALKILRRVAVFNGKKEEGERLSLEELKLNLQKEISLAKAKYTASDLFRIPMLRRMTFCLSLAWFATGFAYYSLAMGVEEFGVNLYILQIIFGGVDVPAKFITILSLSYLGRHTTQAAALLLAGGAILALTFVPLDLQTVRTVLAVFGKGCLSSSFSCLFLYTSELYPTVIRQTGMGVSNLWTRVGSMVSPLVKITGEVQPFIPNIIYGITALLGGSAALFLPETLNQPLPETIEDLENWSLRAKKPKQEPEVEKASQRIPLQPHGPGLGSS", "assay": "Transporter inhibition, OAT3"}, "[4]": {"assay": "Non-GLP 4-week oral screening toxicity study in dogs", "assay_type": "in vivo, beagle dogs", "conditions": "dog, 4 weeks"}, "[5]": {"assay": "Metabolic stability in hepatocytes, human", "assay_type": "in vitro ADME", "conditions": "read-out: intrinsic clearance in hepatocytes (converted)"}, "[6]": {"system": "peripheral NK, NKT cells, circulating reticulocytes", "assay": "NK, NKT cell and reticulocyte counts in healthy human subjects dosed bid for 14 days", "assay_type": "in vivo", "conditions": "3, 6, 12, 24 mg bid 14 days", "experimental": "The following procedure is provided to illustrate a method of counting TBNK cells from a blood sample, such as one collected from a human subject orally dosed with a compound of the invention. The method (including the type of instruments and reagents used) as described herein in is non-limiting, as minor variations to the procedure and equivalent instruments and reagents can be readily envisioned.\nSpecifically, a blood sample is collected into 3 mL lavender K2 EDTA Vacutainer at specified time points and tubes mixed. Samples are shipped to analysis facility at ambient temperature overnight, and sample analysis is preferably done on the day received.\nTwo BD Trucount tubes (BD Biosciences, cat #340334) are used per sample and labeled with sample number followed by A or B. Two tubes are also set up for the BD Multi-Check Control (BD Biosciences, cat #340911) that is a stabilized blood sample used as an inter-run control each time samples are analyzed. […]\nFor NKT cell determination, cell numbers are determined by using FlowJo and looking at the CD3^+/CD16^+/CD56^+ population. The number of cells/μL is calculated by using the following equation: (the number of events in cell population/the number of events in absolute bead count region)×(the number of beads per test*/test volume). *This value is found on BD Trucount tube label."}, "[7]": {"assay": "Pivotal 4-week GLP oral toxicity study in rats", "conditions": "rat, 4 weeks; leading number = dose mg/kg/day"}, "[8]": {"assay": "Pivotal 4-week GLP oral toxicity study in dogs", "assay_type": "in vivo, beagle dogs", "text": "The GLP-compliant studies each included 4 weeks of oral dosing followed by a 4-week recovery period in both rats and dogs followed by GLP-compliant chronic toxicity studies in rats (6 months of oral dosing) and dogs (9 months of oral dosing)."}, "[9]": {"assay": "Metabolic stability in liver microsomes, dog", "assay_type": "in vitro ADME", "conditions": "read-out: intrinsic clearance in liver microsomes (scaled)"}, "[10]": {"system": "EPO dependent reticulocyte deployment", "assay": "Reticulocyte deployment assay (i.v. EPO) in rats", "assay_type": "in vivo", "conditions": "over the exposure range efficacious in rat AIA", "text": "Reticulocytes were deployed with an i.v. EPO injection, which produced a modest but very precise reticulocytosis.\nIn contrast, PBS control has negligible (if any) effect. This is consistent with the fact that EPO signals through Jak2 to stimulate reticulocyte development."}, "[11]": {"assay": "Plasma protein binding, human", "assay_type": "in vitro ADME"}, "[12]": {"assay": "Plasma protein binding, rat", "assay_type": "in vitro ADME"}},
  "note": "Where two headings read alike, the source gives them in different places.",
  "data": [
    {"smiles": "CC[C@@H]1CN(C(=O)NCC(F)(F)F)C[C@@H]1c1cnc2cnc3[nH]ccc3n12", "note": "[Compound 1, (3S,4R)-3-ethyl-4-(3H-imidazo[1,2-a]pyrrolo[2,3-e]pyrazin-8-yl)-N-(2,2,2-trifluoroethyl)pyrrolidine-1-carboxamide]", "values": [
      {"measurement": "IC50", "setting": "BCRP", "result": 126000, "unit": "nM"},
      {"measurement": "IC50", "setting": "EPO (Erythroid CFU)", "result": 400, "unit": "nM"},
      {"measurement": "maternal clinical observations, body weights, food consumption, macroscopic examinations", "setting": "[1]; GD 6 to 17", "result": "No Compound 1-related effects"},
      {"measurement": "NOEL", "setting": "[1]; oral, GD 6-17", "result": "NOEL < 5 mg/kg/day"},
      {"measurement": "IC50", "setting": "[2]", "result": "~20", "unit": "nM"},
      {"measurement": "adverse events severe, serious, or fatal", "setting": "Study M13-845", "result": "None"},
      {"measurement": "number of adverse events in combined treatment groups", "setting": "Substudy 2, RA on MTX, 6, 12, 24 mg BID, all reported as not related", "result": 7},
      {"measurement": "subjects reporting treatment emergent AEs (6 out of 42)", "setting": "healthy volunteers, as printed under Substudy 1", "result": 14.3, "unit": "%"},
      {"measurement": "IC50", "setting": "P-gp", "result": 348000, "unit": "nM"},
      {"measurement": "CYP2B6 mRNA expression, % of the response of phenobarbital", "setting": "CYP2B6; 10 μM", "result": 25, "unit": "%"},
      {"measurement": "mRNA expression of CYP2B6", "setting": "CYP2B6; 1 and 3 μM", "result": "did not increase"},
      {"measurement": "Adverse Findings", "setting": "[3]; both, 4 weeks", "result": "100: Kidneys-cortical tubular"},
      {"measurement": "dose-limiting effects", "setting": "[3]", "result": "mortality"},
      {"measurement": "change in RBC counts compared to control means", "setting": "[3]; 100 mg/kg/day", "result": "−13", "unit": "%"},
      {"measurement": "change in hematocrit compared to control means", "setting": "[3]; 100 mg/kg/day", "result": "−14", "unit": "%"},
      {"measurement": "increase in mean phosphorus (up to, vs control mean)", "setting": "[3]; 100 mg/kg/day", "result": "+10%"},
      {"measurement": "IC50", "setting": "IL-6 signaling; read-out: IL-6 (pSTAT3, CD14+)", "result": 17, "unit": "nM"},
      {"measurement": "IC50", "setting": "IL-6 signaling; whole blood, read-out: IC50 IL-6 pSTAT3 CD14+", "result": 17, "unit": "nM"},
      {"measurement": "inhibition of OCT2 uptake", "setting": "OCT2", "result": "No significant inhibition"},
      {"measurement": "IC50", "setting": "OAT3", "result": 43000, "unit": "nM"},
      {"measurement": "NOAEL", "setting": "[4]; 5 mg/kg/day", "result": "None"},
      {"measurement": "Adverse Findings", "setting": "[4]; leading number = dose mg/kg/day", "result": "5: Popliteal lymph"},
      {"measurement": "CLint scaled at 1 μM", "setting": "[5]", "result": 6.1, "unit": "mL/min/kg"},
      {"measurement": "peripheral NK or NKT cell counts per μL", "setting": "[6]", "result": "only at 12 and 24 mg"},
      {"measurement": "reticulocyte counts", "setting": "[6]", "result": "does not dose dependently reduce reticulocyte counts"},
      {"measurement": "Adverse Findings", "setting": "[7]", "result": "≧100: Mortality"},
      {"measurement": "NOAEL at 4 weeks", "setting": "[8]; both sexes, beagle, in vivo, dog, 4 weeks GLP, oral capsule", "result": 1.5, "unit": "mg/kg/day"},
      {"measurement": "AUC(0-t)", "setting": "[8]; both, beagle, plasma, oral, dog 1.5 mg/kg/day, males and females combined, read-out: AUC0-24 at NOAEL", "result": 1200, "unit": "ng·h/mL"},
      {"measurement": "decreases in red cell mass (up to)", "setting": "[8]; dog, 3 mg/kg/day", "result": "−23", "unit": "%"},
      {"measurement": "decreases in circulating lymphocytes compared with baseline", "setting": "[8]; dog, 5 mg/kg/day", "result": "−20% to −37%"},
      {"measurement": "decreases in red cell mass (up to)", "setting": "[8]; dog, 5 mg/kg/day", "result": "−32", "unit": "%"},
      {"measurement": "Adverse Findings", "setting": "[8]; dog, 4 weeks GLP, leading number = dose mg/kg/day", "result": "≧3: Popliteal lymph"},
      {"measurement": "CLint scaled at 0.5 μM", "setting": "[9]", "result": "< 33.3", "unit": "mL/min/kg"},
      {"measurement": "effects on reticulocyte deployment", "setting": "[10]", "result": "less than that of Tofacitinib"},
      {"measurement": "fraction unbound", "setting": "[11]", "result": 0.53},
      {"measurement": "fraction unbound", "setting": "[12]", "result": 0.36}
    ]}
  ]
}
